According to ChEMBL document CHEMBL4507283, “Data for DCP probe BI-1935” (2021):

What was measured:
[1] = biological target: Serine/threonine-protein kinase TAO2 (Homo sapiens) (UniProt Q9UL54); details: Compound concentration 1000.0 nM
[2] = biological target: Protein-tyrosine kinase 2-beta (Homo sapiens) (UniProt Q14289); details: Compound concentration 1000.0 nM
[3] = biological target: Ribosomal protein S6 kinase alpha-1 (Homo sapiens) (UniProt Q15418); details: Compound concentration 1000.0 nM
[4] = biological target: Serine/threonine-protein kinase ICK (Homo sapiens) (UniProt Q9UPZ9); details: Compound concentration 1000.0 nM
[5] = tested on: Tyrosine-protein kinase ABL1 (Homo sapiens), P00519 [T315I]; details: Compound concentration 1000.0 nM
[6] = biological target: Atypical kinase COQ8A, mitochondrial (Homo sapiens) (UniProt Q8NI60); details: Compound concentration 1000.0 nM
[7] = biological target: Misshapen-like kinase 1 (Homo sapiens) (UniProt Q8N4C8); details: Compound concentration 1000.0 nM
[8] = biological target: Calcium/calmodulin-dependent protein kinase type II subunit gamma (Homo sapiens) (UniProt Q13555); details: Compound concentration 1000.0 nM
[9] = biological target: 5'-AMP-activated protein kinase catalytic subunit alpha-2 (Homo sapiens) (UniProt P54646); details: Compound concentration 1000.0 nM
[10] = biological target: Mitogen-activated protein kinase kinase kinase kinase 2 (Homo sapiens) (UniProt Q12851); details: Compound concentration 1000.0 nM
[11] = biological target: Tyrosine-protein kinase Fgr (Homo sapiens) (UniProt P09769); details: Compound concentration 1000.0 nM
[12] = biological target: Prostaglandin G/H synthase 2 (Homo sapiens) (UniProt P35354); experiment: COX-2 Eurofins-Panlabs selectivity data (BI); details: Compound concentration 10.0 uM
[13] = biological target: Mitogen-activated protein kinase 15 (Homo sapiens) (UniProt Q8TD08); details: Compound concentration 1000.0 nM
[14] = biological target: Tyrosine-protein kinase receptor UFO (Homo sapiens) (UniProt P30530); details: Compound concentration 1000.0 nM
[15] = biological target: Serine/threonine-protein kinase WNK4 (Homo sapiens) (UniProt Q96J92); details: Compound concentration 1000.0 nM
[16] = biological target: Dual specificity tyrosine-phosphorylation-regulated kinase 2 (Homo sapiens) (UniProt Q92630); details: Compound concentration 1000.0 nM
[17] = biological target: Death-associated protein kinase 1 (Homo sapiens) (UniProt P53355); details: Compound concentration 1000.0 nM
[18] = biological target: BMP-2-inducible protein kinase (Homo sapiens) (UniProt Q9NSY1); details: Compound concentration 1000.0 nM
[19] = biological target: Ephrin type-A receptor 6 (Homo sapiens) (UniProt Q9UF33); details: Compound concentration 1000.0 nM
[20] = biological target: Aurora kinase B (Homo sapiens) (UniProt Q96GD4); details: Compound concentration 1000.0 nM
[21] = biological target: Dual specificity protein kinase CLK1 (Homo sapiens) (UniProt P49759); details: Compound concentration 1000.0 nM
[22] = biological target: Mitogen-activated protein kinase kinase kinase 1 (Homo sapiens) (UniProt Q13233); details: Compound concentration 1000.0 nM
[23] = biological target: Serine/threonine-protein kinase 32C (Homo sapiens) (UniProt Q86UX6); details: Compound concentration 1000.0 nM
[24] = biological target: Serine/threonine-protein kinase NIM1 (Homo sapiens) (UniProt Q8IY84); details: Compound concentration 1000.0 nM
[25] = biological target: 3-hydroxy-3-methylglutaryl-coenzyme A reductase (Rattus norvegicus) (UniProt P51639); experiment: HMGCOARED Eurofins-Panlabs selectivity data (BI); details: Compound concentration 10.0 uM
[26] = biological target: Serine/threonine-protein kinase ULK3 (Homo sapiens) (UniProt Q6PHR2); details: Compound concentration 1000.0 nM
[27] = tested on: Phosphatidylinositol 4,5-bisphosphate 3-kinase catalytic subunit alpha isoform (Homo sapiens), P42336 [E545K]; details: Compound concentration 1000.0 nM
[28] = biological target: Mitogen-activated protein kinase 8 (Homo sapiens) (UniProt P45983); details: Compound concentration 1000.0 nM
[29] = biological target: Ephrin type-A receptor 7 (Homo sapiens) (UniProt Q15375); details: Compound concentration 1000.0 nM
[30] = biological target: Inhibitor of nuclear factor kappa-B kinase subunit beta (Homo sapiens) (UniProt O14920); details: Compound concentration 1000.0 nM
[31] = biological target: Serine/threonine-protein kinase BRSK1 (Homo sapiens) (UniProt Q8TDC3); details: Compound concentration 1000.0 nM
[32] = biological target: Serine/threonine-protein kinase 24 (Homo sapiens) (UniProt Q9Y6E0); details: Compound concentration 1000.0 nM
[33] = biological target: 5-hydroxytryptamine receptor 1E (Homo sapiens) (UniProt P28566); details: Compound concentration 10.0 uM
[34] = biological target: Mitogen-activated protein kinase kinase kinase 9 (Homo sapiens) (UniProt P80192); details: Compound concentration 1000.0 nM
[35] = biological target: Serine/threonine-protein kinase B-raf (Homo sapiens) (UniProt P15056); details: Compound concentration 1000.0 nM
[36] = biological target: Neutrophil elastase (Homo sapiens) (UniProt P08246); experiment: ELASTASEPMN Eurofins-Panlabs selectivity data (BI); details: Compound concentration 10.0 uM
[37] = biological target: Dual specificity protein kinase CLK3 (Homo sapiens) (UniProt P49761); details: Compound concentration 1000.0 nM
[38] = biological target: Tyrosine-protein kinase Fer (Homo sapiens) (UniProt P16591); details: Compound concentration 1000.0 nM
[39] = tested on: Tyrosine-protein kinase ABL1 (Homo sapiens), P00519 [M351T]; details: Compound concentration 1000.0 nM
[40] = biological target: MAP kinase-activated protein kinase 2 (Homo sapiens) (UniProt P49137); details: Compound concentration 1000.0 nM
[41] = biological target: Muscarinic acetylcholine receptor (Rattus norvegicus) (UniProt P08482+P08483+P08485+P08911+P10980); experiment: MUSCARIN/NS Eurofins-Panlabs selectivity data (BI); assay type: protein assay; details: Compound concentration 10.0 uM
[42] = biological target: Wee1-like protein kinase (Homo sapiens) (UniProt P30291); details: Compound concentration 1000.0 nM
[43] = tested on: Mast/stem cell growth factor receptor Kit (Homo sapiens), P10721 [A829P]; details: Compound concentration 1000.0 nM
[44] = biological target: D(1A) dopamine receptor (Homo sapiens) (UniProt P21728); details: Compound concentration 10.0 uM
[45] = biological target: D(4) dopamine receptor (Homo sapiens) (UniProt P21917); details: Compound concentration 10.0 uM

Wee1-like protein kinase (Homo sapiens), sequence (P30291 whole entry, looked up): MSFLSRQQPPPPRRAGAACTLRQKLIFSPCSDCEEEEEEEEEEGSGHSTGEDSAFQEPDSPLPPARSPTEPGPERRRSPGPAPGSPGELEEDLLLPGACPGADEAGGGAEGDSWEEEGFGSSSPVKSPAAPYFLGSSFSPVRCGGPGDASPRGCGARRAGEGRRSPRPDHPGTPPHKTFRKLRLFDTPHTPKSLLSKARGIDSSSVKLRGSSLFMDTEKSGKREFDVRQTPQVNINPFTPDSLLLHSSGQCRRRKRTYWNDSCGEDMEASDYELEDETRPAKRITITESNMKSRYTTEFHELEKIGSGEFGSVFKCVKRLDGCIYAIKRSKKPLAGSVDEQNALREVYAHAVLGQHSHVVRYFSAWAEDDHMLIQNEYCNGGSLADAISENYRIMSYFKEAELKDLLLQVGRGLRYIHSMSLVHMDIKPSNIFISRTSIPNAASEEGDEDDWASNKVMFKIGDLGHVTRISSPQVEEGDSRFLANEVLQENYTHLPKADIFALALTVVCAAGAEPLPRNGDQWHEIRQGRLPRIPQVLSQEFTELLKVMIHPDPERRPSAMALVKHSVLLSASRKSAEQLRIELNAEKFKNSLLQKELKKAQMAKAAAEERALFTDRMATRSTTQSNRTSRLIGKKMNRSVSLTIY
Ephrin type-A receptor 6 (Homo sapiens), sequence (Q9UF33 whole entry): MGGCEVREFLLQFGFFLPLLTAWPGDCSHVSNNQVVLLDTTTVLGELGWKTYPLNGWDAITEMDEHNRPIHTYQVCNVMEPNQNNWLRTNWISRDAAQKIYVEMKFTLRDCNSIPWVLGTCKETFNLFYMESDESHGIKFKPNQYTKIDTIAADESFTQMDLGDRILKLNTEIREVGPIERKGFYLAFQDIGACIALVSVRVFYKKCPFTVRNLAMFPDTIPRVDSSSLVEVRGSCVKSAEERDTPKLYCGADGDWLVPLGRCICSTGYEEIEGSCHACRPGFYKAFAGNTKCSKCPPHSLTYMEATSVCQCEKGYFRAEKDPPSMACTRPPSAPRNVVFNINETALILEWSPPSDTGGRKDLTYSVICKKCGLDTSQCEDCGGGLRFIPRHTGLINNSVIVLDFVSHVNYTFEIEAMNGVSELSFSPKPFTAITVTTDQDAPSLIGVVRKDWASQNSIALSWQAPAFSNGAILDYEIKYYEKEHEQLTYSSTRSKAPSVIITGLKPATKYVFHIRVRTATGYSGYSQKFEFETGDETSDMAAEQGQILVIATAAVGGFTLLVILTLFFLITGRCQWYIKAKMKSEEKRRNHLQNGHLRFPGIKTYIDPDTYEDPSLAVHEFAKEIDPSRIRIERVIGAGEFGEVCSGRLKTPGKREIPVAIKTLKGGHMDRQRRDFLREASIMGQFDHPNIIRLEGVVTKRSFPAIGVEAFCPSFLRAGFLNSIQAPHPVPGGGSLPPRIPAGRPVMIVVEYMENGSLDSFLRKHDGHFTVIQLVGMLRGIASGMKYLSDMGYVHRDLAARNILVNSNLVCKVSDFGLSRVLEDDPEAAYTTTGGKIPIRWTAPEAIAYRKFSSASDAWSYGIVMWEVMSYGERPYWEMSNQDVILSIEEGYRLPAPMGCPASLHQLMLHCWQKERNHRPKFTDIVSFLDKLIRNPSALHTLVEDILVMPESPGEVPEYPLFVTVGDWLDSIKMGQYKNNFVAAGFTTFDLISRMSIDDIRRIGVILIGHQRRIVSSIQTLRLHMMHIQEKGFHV
Calcium/calmodulin-dependent protein kinase type II subunit gamma (Homo sapiens), sequence (Q13555 whole entry): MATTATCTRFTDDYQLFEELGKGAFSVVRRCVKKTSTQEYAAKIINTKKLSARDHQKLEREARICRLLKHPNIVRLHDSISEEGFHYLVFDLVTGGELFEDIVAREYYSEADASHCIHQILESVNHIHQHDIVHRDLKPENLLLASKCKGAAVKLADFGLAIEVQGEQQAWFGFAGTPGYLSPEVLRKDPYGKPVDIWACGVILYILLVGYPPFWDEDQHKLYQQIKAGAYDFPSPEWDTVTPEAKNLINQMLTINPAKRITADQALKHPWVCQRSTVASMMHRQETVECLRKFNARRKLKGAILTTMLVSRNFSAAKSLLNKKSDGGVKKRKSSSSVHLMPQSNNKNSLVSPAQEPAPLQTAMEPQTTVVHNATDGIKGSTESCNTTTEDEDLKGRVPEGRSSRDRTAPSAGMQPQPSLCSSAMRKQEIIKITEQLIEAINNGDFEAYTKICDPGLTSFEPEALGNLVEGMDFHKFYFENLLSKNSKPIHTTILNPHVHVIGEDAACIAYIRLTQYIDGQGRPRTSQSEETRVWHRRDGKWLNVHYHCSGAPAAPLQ
Tyrosine-protein kinase Fgr (Homo sapiens), sequence (P09769 2-529 limits assumed): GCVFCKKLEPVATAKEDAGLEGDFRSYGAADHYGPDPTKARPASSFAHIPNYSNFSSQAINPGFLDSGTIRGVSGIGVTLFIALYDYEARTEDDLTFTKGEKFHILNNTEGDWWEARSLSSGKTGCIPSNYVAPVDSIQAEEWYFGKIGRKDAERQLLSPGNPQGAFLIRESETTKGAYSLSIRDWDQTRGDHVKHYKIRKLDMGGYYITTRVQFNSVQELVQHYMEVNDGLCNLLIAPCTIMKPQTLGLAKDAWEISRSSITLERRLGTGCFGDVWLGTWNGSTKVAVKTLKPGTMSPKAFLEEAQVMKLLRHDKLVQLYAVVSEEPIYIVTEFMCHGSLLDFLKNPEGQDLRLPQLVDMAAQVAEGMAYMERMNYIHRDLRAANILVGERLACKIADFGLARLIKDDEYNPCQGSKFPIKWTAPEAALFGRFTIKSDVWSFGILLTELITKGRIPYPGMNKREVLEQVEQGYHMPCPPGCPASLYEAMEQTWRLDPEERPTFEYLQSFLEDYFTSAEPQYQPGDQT
5'-AMP-activated protein kinase catalytic subunit alpha-2 (Homo sapiens), sequence (P54646 whole entry, looked up): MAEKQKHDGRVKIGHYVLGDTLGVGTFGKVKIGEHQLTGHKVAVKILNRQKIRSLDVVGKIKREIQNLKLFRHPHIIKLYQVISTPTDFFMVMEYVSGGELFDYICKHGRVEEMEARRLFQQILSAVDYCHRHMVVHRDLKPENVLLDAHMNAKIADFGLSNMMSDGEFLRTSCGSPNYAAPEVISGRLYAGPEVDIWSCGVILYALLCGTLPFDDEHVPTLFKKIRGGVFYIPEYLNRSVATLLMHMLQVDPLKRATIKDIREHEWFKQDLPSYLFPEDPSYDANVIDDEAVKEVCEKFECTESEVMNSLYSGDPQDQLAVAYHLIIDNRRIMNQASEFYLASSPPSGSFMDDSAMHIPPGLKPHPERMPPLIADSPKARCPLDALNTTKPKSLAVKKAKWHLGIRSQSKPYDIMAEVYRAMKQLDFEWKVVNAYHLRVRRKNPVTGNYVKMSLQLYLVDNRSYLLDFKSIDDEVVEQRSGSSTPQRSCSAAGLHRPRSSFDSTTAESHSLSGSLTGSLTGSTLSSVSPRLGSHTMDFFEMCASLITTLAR
Mast/stem cell growth factor receptor Kit (Homo sapiens), P10721 [A829P], sequence (P10721 whole entry A829P): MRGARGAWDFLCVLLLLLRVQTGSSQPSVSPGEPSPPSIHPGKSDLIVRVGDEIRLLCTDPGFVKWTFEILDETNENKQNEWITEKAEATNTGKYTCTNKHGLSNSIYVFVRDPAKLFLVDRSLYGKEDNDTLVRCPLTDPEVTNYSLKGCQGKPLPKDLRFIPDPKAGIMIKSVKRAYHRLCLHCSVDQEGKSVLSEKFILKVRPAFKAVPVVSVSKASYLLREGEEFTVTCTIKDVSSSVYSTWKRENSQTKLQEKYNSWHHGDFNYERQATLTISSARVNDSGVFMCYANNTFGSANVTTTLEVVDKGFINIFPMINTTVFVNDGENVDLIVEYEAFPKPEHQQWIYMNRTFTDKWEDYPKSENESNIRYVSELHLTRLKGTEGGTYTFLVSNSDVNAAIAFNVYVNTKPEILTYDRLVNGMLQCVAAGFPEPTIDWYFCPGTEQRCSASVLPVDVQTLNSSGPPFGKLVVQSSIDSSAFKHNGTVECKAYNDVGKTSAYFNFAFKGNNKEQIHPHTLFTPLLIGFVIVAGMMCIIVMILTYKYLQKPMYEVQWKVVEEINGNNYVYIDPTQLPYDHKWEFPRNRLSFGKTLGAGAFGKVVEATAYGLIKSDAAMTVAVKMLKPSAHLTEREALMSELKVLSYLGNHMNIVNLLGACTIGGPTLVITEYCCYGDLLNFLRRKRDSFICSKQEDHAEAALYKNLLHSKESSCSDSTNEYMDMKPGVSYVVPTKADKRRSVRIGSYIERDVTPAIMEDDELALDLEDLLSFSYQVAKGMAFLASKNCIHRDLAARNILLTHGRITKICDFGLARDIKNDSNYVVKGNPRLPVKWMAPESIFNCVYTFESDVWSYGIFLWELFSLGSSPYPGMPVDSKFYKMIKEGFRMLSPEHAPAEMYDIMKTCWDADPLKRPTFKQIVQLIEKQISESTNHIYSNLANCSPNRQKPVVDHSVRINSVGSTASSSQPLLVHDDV
Atypical kinase COQ8A, mitochondrial (Homo sapiens), sequence (Q8NI60 163-647 limits assumed): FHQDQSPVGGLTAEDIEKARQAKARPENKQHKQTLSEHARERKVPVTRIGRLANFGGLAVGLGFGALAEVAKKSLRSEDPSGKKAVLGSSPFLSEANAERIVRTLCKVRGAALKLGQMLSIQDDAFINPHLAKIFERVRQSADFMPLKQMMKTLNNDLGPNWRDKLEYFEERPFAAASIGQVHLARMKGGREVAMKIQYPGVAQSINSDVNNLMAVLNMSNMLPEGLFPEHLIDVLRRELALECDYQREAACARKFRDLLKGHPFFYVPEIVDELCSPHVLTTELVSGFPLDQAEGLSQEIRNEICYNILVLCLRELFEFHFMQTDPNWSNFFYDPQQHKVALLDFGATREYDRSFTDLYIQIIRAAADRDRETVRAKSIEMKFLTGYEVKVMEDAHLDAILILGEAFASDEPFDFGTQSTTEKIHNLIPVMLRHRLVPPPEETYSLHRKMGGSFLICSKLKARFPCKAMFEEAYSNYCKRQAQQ
Neutrophil elastase (Homo sapiens), sequence (P08246 whole entry): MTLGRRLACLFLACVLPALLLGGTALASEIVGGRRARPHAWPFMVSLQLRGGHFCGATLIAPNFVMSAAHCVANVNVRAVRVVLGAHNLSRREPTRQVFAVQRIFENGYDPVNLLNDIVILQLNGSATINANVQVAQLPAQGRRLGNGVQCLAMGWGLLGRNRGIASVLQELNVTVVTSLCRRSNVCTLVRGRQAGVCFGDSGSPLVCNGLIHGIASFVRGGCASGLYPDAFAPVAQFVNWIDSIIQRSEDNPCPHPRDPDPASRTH

CCOCCn1cc(C(=O)Nc2ccc(-n3nc(-c4cccnc4)cc3C(F)(F)F)cn2)ccc1=O [BI 1935]
inactive: residual activity [1] 75% | residual activity [2] 100% | residual activity [3] 100% | residual activity [4] 99% | residual activity [5] 96% | residual activity [6] 90% | residual activity [7] 89% | residual activity [8] 100% | residual activity [9] 100% | residual activity [10] 76% | residual activity [11] 100% | residual activity [12] 108% | residual activity [13] 100% | residual activity [14] 91% | residual activity [15] 91% | residual activity [16] 100% | residual activity [17] 100% | residual activity [18] 95% | residual activity [19] 93% | residual activity [20] 100% | residual activity [21] 100% | residual activity [22] 84% | residual activity [23] 100% | residual activity [24] 100% | residual activity [25] 87% | residual activity [26] 61% | residual activity [27] 96% | residual activity [28] 72% | residual activity [29] 98% | residual activity [30] 100% | residual activity [31] 100% | residual activity [32] 100% | inhibition [33] -4.17% | residual activity [34] 93% | residual activity [35] 95% | residual activity [36] 100% | residual activity [37] 100% | residual activity [38] 100% | residual activity [39] 100% | residual activity [40] 100% | residual activity [41] 112% | residual activity [42] 100% | residual activity [43] 100% | inhibition [44] -7.31% | inhibition [45] -3.89%
